Assay results published in patent publication US7416848B2, “DNA encoding SNORF25 receptor” (H. Lundbeck A/S, priority 1999, dated 2008).

Target: T1, SNORF25 (Homo sapiens, UniProt Q8TDV5)
T1 sequence (Q8TDV5 1-335): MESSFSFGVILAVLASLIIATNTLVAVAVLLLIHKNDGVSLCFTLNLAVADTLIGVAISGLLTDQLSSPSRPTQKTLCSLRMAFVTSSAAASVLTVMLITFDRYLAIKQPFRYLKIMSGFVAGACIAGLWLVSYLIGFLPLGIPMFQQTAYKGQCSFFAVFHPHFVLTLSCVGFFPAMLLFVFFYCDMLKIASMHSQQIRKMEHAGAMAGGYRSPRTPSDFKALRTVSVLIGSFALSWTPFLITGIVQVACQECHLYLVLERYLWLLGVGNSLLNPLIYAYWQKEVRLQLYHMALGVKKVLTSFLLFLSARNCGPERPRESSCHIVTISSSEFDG
Test: Cl- currents via phospholipase C pathway in SNORF25 oocytes
Assay type: cell-based
Set-up: from linearized plasmids or PCR products containing the complete coding region of the genes; expressed in transfected cells; host or cells: Xenopus laevis oocytes injected with SNORF25 mRNA (with or without CFTR mRNA)
Method: Oocytes are harvested from Xenopus laevis and injected with mRNA transcripts as previously described (Quick and Lester, 1994; Smith et al., 1997). The test receptor of this invention and Gα subunit RNA transcripts are synthesized using the T7 polymerase (“Message Machine,” Ambion) from linearized plasmids or PCR products containing the complete coding region of the genes. Oocytes are injected with 10 ng synthetic receptor RNA and incubated for 3–8 days at 17 degrees. Three to eight hours prior to recording, oocytes are injected with 500 pg promiscuous Gα subunits mRNA in order to observe coupling to Ca^++ activated Cl^− currents.
Heterologous expression of GPCRs in Xenopus oocytes has been widely used to determine the identity of signaling pathways activated by agonist stimulation (Gundersen et al., 1983; Takahashi et al., 1987). Activation of the phospholipase C (PLC) pathway is assayed by applying a test compound in ND96 solution to oocytes previously injected with mRNA for the SNORF25 receptor and observing inward currents at a holding potential of approximately −80 mV. The appearance of currents that reverse at −25 mV and display other properties of the Ca^++-activated Cl^− channel is indicative of receptor-activation of PLC and release of IP3 and intracellular Ca^++.

responses in oocytes expressing chimeric G-proteins (chimeric G-proteins coupling Gi and Go GPCRs to phospholipase C pathway): not evoked
Cl- currents in oocytes lacking CFTR (oocytes lacking CFTR, Gq-mediated phospholipase C pathway): did not stimulate Cl^− currents
SMILES: CC1=C(/C=C/C(C)=C/C=C/C(C)=C/C(=O)O)C(C)(C)CCC1 [ATRA, all-trans-retinoic acid]
